Results on 7 molecules are retold here after article PMC10740270, “In-silico guided chemical exploration of KDM4A fragments hits” (Clinical Epigenetics, 2023).

“And” between values parts separate entries of the source, which are not always exact repeats. Identical values can stand only once.

Series [1] concerns the target T1, KDM4A (Homo sapiens, UniProt O75164).
T1 construct: encoding human KDM4A residues 1–350 with a GST-6xHis tag at the N-terminal; GST-6xHis (followed by TEV cleavage site) (N, cleaved yes); made in house; host or cells: T7 Express E. coli
T1 sequence (O75164 1-350): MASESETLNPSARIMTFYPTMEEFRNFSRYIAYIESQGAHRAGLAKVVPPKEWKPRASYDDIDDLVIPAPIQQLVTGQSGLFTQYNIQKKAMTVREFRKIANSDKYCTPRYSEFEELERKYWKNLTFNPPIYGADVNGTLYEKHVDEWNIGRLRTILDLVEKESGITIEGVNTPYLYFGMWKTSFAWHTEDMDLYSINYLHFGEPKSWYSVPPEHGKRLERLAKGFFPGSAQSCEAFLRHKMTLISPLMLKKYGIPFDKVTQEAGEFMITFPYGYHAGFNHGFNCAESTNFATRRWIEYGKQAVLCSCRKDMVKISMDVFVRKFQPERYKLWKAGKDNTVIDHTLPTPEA
The series is described as follows: Enzymatic HTRF-based assay, inhibition of H3K9me3 peptide demethylation. It is filed as biochemical. The conditions noted are these: for inhibition at 50 µM: read-out: Inhibition at 50 μM; for IC50: HTRF, H3K9me3 peptide, 0.5 µM 2-OG, 400 nM KDM4A, ± standard error of fit. The procedure: The plasmid pGEX4T2-JMJD2A encoding human KDM4A residues 1–350 with a GST-6xHis tag at the N-terminal, followed by Tobacco Etch Virus (TEV) cleavage site, was used for protein expression. The plasmid was used to transform T7 Express E.coli competent cells. Cells were grown in LB media supplemented with ampicillin (100 µg/mL) at 37 °C until the OD600 reached a value around 0.4. Flasks were then cooled down and, after induction by 0.2 mM ITPG at OD600 = 0.8, bacteria were grown at 18 °C for 20 h. After centrifugation at 8000 g (20 min at 4 °C) the obtained pellets were suspended in lysis buffer (20 mM TRIS pH = 8, 0.3 M NaCl, 10 mM imidazole, 5% glycerol, 1 mM DTT, 10 µg/mL DNAse, 0.5 mg/mL lysozyme, 0.5 mM PMSF, 2 cOmplete™ EDTA-free Protease Inhibitor Cocktail, 5 mM MgCl2) and incubated at 25 °C for 1 h. Sonication (1 s ON and 1 s OFF) on ice for 7 min at 48% amplitude was performed. 0.1% Triton X-100 was added and the lysate was incubated on ice for 15 min in agitation. Soluble and insoluble phase were separated by centrifugation at 15,000 rpm, 4 °C for 30 min. Soluble phase was filtered using a 0.45 um syringe filter and directly loaded in 2 × 5 mL His-trap FF Crude column (GE Healthcare) previously equilibrated with loading buffer (20 mM TRIS, pH = 8, 0.3 M NaCl, 1 mM DTT, 10 mM imidazole, 5% glycerol). A linear gradient elution by 500 mM imidazole was done to elute bound KDM4A. In order to remove the GST-6xHis tag and imidazole excess, the eluted KDM4A was incubated with His-tagged TEV-protease (molar ratio 20:1) and dialyzed against 20 mM TRIS, pH = pH 7.5, 0.3 M NaCl, 1 mM DTT overnight at 4 °C. Tag free KDM4A was recovered reloading the dialyzed sample onto a His-trap column and collecting the flow-through. Size exclusion chromatography was used as final polishing step using a Superdex 200 grade 16/600 pg column (GE Healthcare) pre-equilibrated with 10 mM Hepes, pH = 7.5, 150 mM NaCl, 5% glycerol, 0.5 mM TCEP. Fractions containing KDM4A were pooled and concentrated to 50–100 µM, flash frozen in liquid nitrogen, and stored at − 80 °C. Protein concentration was measured by using the predicted molar extinction coefficient (ε280 = 73,800 M^−1 cm^−1), and the purity verified by SDS-PAGE resulted > 95%.
Enzymatic HTRF-based assay was run in two steps: enzymatic reaction and detection. Optimal conditions for both steps were determined by considering: plate format, time and temperature of incubation, substrate and DMSO concentrations.
Dimethyl sulfoxide (DMSO, Sigma-Aldrich D58791) final concentration was 1%. The reaction mixture was incubated for 2 h at 20 °C in ½ area 96 well plates (ref. 6002290 m, Perkin Elmer).
For the detection step, 40 μl of HTRF reagents, H3K9 me2-Eu(K) Ab (Cisbio Bioassays, 61KB2KAE) and Streptavidin XL-665 (Cisbio Bioassays, 610SAXLA), prepared in detection buffer following manufacturer’s instruction (Cisbio Assays, 62SDBRDD), were added to each well and incubated o/n at 20 °C. Fluorescence was measured with a TECAN Spark reader (Männedorf, Switzerland), by setting excitation wavelength at 320 nm and emission wavelength at 620 and 665 nm.
Automation was performed using Bravo (Agilent) liquid handling system. Validation of the assay was performed following NIH guidelines. 2,4-pyridinedicarboxylic acid monohydrate (2,4-PDCA, Sigma Aldrich P63395) was used as positive control at Imax 10 µM, and Z’ was determined on 9 independent experiments always giving a value > 0.5. The following reference compounds were used as internal controls in the screening plates: 2,4-Pyridinedicarboxylic Acid, 8-hydroxyquinoline-5-carboxylic acid, pyrido[3,4-d]pyrimidin-4(3H)-one, 3-(ethylsulfonyl)-N-(4-(pyridin-2-yl)thiazol-2-yl)benzamide, 3-(ethylsulfonyl)-N-(4-(pyridin-2-yl)thiazol-2-yl)benzamide, 3-(methylsulfonyl)-N-(4-(pyridin-2-yl)thiazol-2-yl)benzamide.
For orientation: In TR-FRET formats the signal depends on donor and acceptor labels being close together.

The target of series [2] is T1, KDM4A. The series is described as follows: Bio-layer interferometry (BLI) binding to biotinylated KDM4A. The conditions noted are these: for Kd: BLI, 1:1 Langmuir global fit, 25 °C, 5% DMSO; for LE: ligand efficiency score; for LE / LLE: method of ref 58; for LLE: lipophilic ligand efficiency score. The text has this: (§1) Bio-layer interferometry (BLI) was then used to determine the equilibrium dissociation constant (KD) for the binding event. QC6352 inhibitor [52] and N-[(2-Chloro-6-fluorophenyl)methyl]-2-(2,5-dioxo-4-phenyl-4-propylimidazolidin-1-yl)-N-methylacetamide were used as positive and negative control, respectively. […] Binding was also confirmed by Saturation-Transfer Difference (STD) NMR experiments (Additional file 1: Fig. S5).
Bio-layer Interferometry experiments Bio-layer Interferometry was employed to determine the equilibrium dissociation constant (KD) for compounds binding to KDM4A, using a BLI Octet RED96e instrument (Fortebio–Sartorius). Biotinylated KDM4A samples (20 μg/ml) in 10 mM Hepes, pH = 7.5, 150 mM NaCl, 0.5 mM TCEP, 5% glycerol, and 5% DMSO, were loaded onto super streptavidin (SSA) coated biosensors for at least 500 s to saturate the sensors, and then quenched with 10 µg/ml of biocytin for 60 s. Loaded SSA biosensors were then equilibrated in buffer for at least 600 s prior to baseline collection. Association was followed for at least 120 s or until plateau was reached, in a concentration range of 15.6–500 nM for the positive control, and of 3–200 µM for the negative control, and compound 1 and its analogues. Dissociation was followed for at least 300 s. All steps were performed at 25 °C with an agitation speed of 1000 rpm. QC6352 inhibitor [52] and N-[(2-chloro-6-fluorophenyl)methyl]-2-(2,5-dioxo-4-phenyl-4-propylimidazolidin-1-yl)-N-methylacetamide were used as positive and negative control, respectively. Two or three independent experiments were performed for each tested compound.
KD values were estimated by globally fitting the BLI response intensity (nm) as a function of compound concentration (μM) with the Octet Data Analysis Software, using a 1:1 Langmuir binding model.
Biotinylated KDM4A was obtained as follows. 17 nmol of purified recombinant KDM4A was mixed with 17 nmol of NHS-PEG4-Biotin (ThermoFisher Scientific 21,330) in 10 mM Hepes, pH = 7.5, 150 mM NaCl, 0.5 mM TCEP, 5% Glycerol. The solution was incubated at 4 °C for 2 h. Excess biotin was removed by 2 ml Zeba™ Spin Desalting Columns (7 K MWCO).
(In BLI a coated tip is dipped into the sample, and binding shifts an interference pattern.)

The target in series [3] is T1, KDM4A. Briefly: STD-NMR binding experiment. The conditions noted are these: 1:50 receptor-to-ligand ratio, 7.5 µM KDM4A. The procedure:
as §1
STD-NMR experiments STD-NMR spectra were recorded at 800 MHz on Bruker spectrometer and 298 K in 20 mM NaPh, pH = 7.5, 150 mM NaCl, 0.5 mM TCEP, 8% D2O, using 7.5 µM of KDM4A and 20- or 50-fold excess of each compound. A series of Gaussian-shaped pulses of 0.025 s each was employed with a total saturation time for the protein envelope of 2 s. Off-resonance frequency of d = − 40 ppm and on-resonance frequency of d = 0.07 ppm (protein aliphatic signals region) were applied. Spectra were processed and analyzed using Bruker TopSpin software.
Suppl. Fig. S5: STD-NMR analysis of compound 1. […] (i) The 1D NMR reference spectrum of compound 1. (ii) The STD-NMR spectrum of compound 1 in the presence of KDM4A. The NMR spectrum was recorded at 1:50 receptor-to-ligand ratio.

Substrate in series [4]: O=C(O)CCC(=O)C(=O)O
The series is described as follows: purified protein, by the assay type. The conditions noted are these: other: 2-OG titrated 50 µM to 0.01 µM, Michaelis-Menten plot.

A word on the inhibition: it is the share of the control response that was lost under treatment. For orientation: Kd means a measure of binding affinity in units of concentration. Low readings indicate a tighter complex, high ones a looser complex. As to `COC(=O)c1ccnc(C(=O)NCc2nc3ccccc3n2C)c1` [Compound 5d, Methyl 2-(((1-methyl-1H-benzo[d]imidazole-2-yl)methyl)carbamoyl)isonicotinate], the inhibition at 50 µM at KDM4A [1] is below 50%. At KDM4A [2], this molecule registered an equilibrium dissociation constant (Kd) of 55 ± 2 µM, an LE of 0.24 and an LLE of 1.88.

The term IC50 denotes the concentration that inhibits the measured activity by half. A higher IC50 goes with lower potency. Take `O=C(O)c1ccnc(C(=O)NCc2cnco2)c1` [Compound 6b, 2-((Oxazol-5-ylmethyl)carbamoyl)isonicotinic acid]: on KDM4A [1], the half-maximal inhibitory concentration (IC50) is 25.1 µM and 25 µM; the inhibition at 50 µM is above 90%. On KDM4A [2], this molecule registered a Kd of 9.5 ± 0.08 µM, an LE of 0.39 and an LLE of 4.50.

As to `CNC(=O)c1cc(C(=O)O)ccn1` [Compound 1, 2-(methylcarbamoyl)isonicotinic acid], the concentration for half-maximal inhibition (IC50) against KDM4A [1] is 7.09 µM and 7.1 µM. Further, at KDM4A [2], the dissociation constant (Kd) was determined as 15 ± 0.16 µM, the LE was found to be 0.51 and the LLE came out at 4.59. Further, the “Binding to KDM4A by STD-NMR” value on KDM4A [3] is on record as “detected compound 1 binding to KDM4A”.

As for `CCCNC(=O)c1cc(C(=O)O)ccn1` [Compound 6c, 2-(Propylcarbamoyl)isonicotinic acid], on KDM4A [1], the midpoint of inhibition, the IC50, lay at 41.6 µM and the inhibition at 50 µM was above 90%. Also, on KDM4A [2], binding was put at a Kd of 10.7 ± 0.2 µM, the LE is 0.48 and the LLE is reported as 4.18.

Take `O=C(O)c1ccnc(C(=O)NCc2ccccc2)c1` [Compound 6a, 2-(benzylcarbamoyl)isonicotinic acid]: at KDM4A [1], the inhibition at 50 µM is below 50%. In addition, on KDM4A [2], the Kd came to 45 ± 1 µM, the LE stood at 0.33 and the LLE is 2.49.

Consider `COC(=O)c1ccnc(C(=O)NCc2ccccc2)c1` [Compound 5a, Methyl 2-(benzylcarbamoyl)isonicotinate], for which the inhibition at 50 µM at KDM4A [1] is below 50%.

B1: KDM4A (Homo sapiens) (protein)
chain: MASESETLNPSARIMTFYPTMEEFRNFSRYIAYIESQGAHRAGLAKVVPPKEWKPRASYDDIDDLVIPAPIQQLVTGQSGLFTQYNIQKKAMTVREFRKIANSDKYCTPRYSEFEELERKYWKNLTFNPPIYGADVNGTLYEKHVDEWNIGRLRTILDLVEKESGITIEGVNTPYLYFGMWKTSFAWHTEDMDLYSINYLHFGEPKSWYSVPPEHGKRLERLAKGFFPGSAQSCEAFLRHKMTLISPLMLKKYGIPFDKVTQEAGEFMITFPYGYHAGFNHGFNCAESTNFATRRWIEYGKQAVLCSCRKDMVKISMDVFVRKFQPERYKLWKAGKDNTVIDHTLPTPEA
Broadly, the Km is the substrate concentration at which the rate is half of its maximum. Take B1: in series [4], the Michaelis-Menten constant (Km) amounted to 0.73 ± 0.16 µM.
